# Reference: publication PMC4945415 (Journal of medicinal chemistry, 2016)
# Like-named read-outs stand apart in the source and are kept apart here. Marks after values point to notes of the source that are not given here.
# Experiments:
# β-hematin (βH) formation = assay: NP-40 detergent mediated β-hematin inhibition assay; format: biochemical; details: read-out: βH inhibition IC50; NP-40 assay
# [1] = tested on: D10 strain of P. falciparum; assay: Parasite growth inhibition, CQ-sensitive D10 strain; format: cell-based, Plasmodium falciparum
# [2] = tested on: NF54 strain of P. falciparum; assay: Parasite growth inhibition, CQ-sensitive NF54 strain; format: cell-based, Plasmodium falciparum
# [3] = Association constant with Fe; format: binding; details: for logK (association constant with Fe(III)PPIX): 1:1 complex, 7.5 μM hematin, 40% v/v DMSO, pH 7.5; for Binding constant ratio relative to 12c (K/K12c): from logK values
# [4] = 1:1 complex, 40% DMSO; cited from earlier work
# [5] = In vitro metabolic stability, mouse liver microsomes
# [6] = In vitro metabolic stability, human liver microsomes
# K1 CQ-resistant strain = details: read-out: K1 parasite IC50
# [7] = tested on: Chinese hamster ovarian (CHO) cell line; details: read-out: CHO IC50
# Kinetic solubility = details: for Kinetic solubility FaSSIF / Kinetic solubility pH 6.5: pH 6.5
# [8] = In vitro metabolic stability, rat liver microsomes
# [9] = tested on: parasitized erythrocyte, CQ-sensitive D10 strain; assay: Inoculum effect measurement of cellular accumulation; format: cell-based, Plasmodium falciparum; details: IC50 vs initial parasitemia
# [10] = tested on: D6 strain of P. falciparum; details: read-out: parasite activity against the D6 strain, HTS; cited from earlier work
# [11] = read-out: D10 parasite IC50, CQ-sensitive D10 strain
# [12] = read-out: NF54 parasite IC50, CQ-sensitive NF54 strain
compound,measurement,setting,value
"5-Cyano-N,N-di(pyridin-4-yl)isophthalamide [Compound 15d]",IC50,β-hematin (βH) formation,6.34 ± 0.09 µM
same,IC50,[1]; [11],2 ± 0.2 µM
same,IC50,[2]; [12],1.9 ± 0.2 µM
"O=C(Nc1ccncc1)c1cc([N+](=O)[O-])cc([N+](=O)[O-])c1 [Compound 12c, 3,5-Dinitro-N-(pyridin-4-yl)benzamide]",logK (association constant with Fe(III)PPIX),[3],3.20 ± 0.36
same,Binding constant ratio relative to 12c (K/K12c),[3],1
"O=C(Nc1ccccc1)c1cc(C(=O)Nc2nc3ccccc3[nH]2)cc([N+](=O)[O-])c1 [Compound 18, N^1-(1H-Benzo[d]imidazol-2-yl)-5-nitro-N^3-phenylisophthalamide]",IC50,"[2]; Plasmodium falciparum, NF54, read-out: parasite activity (maximum dose concentration)",> 249 µM
"5-Nitro-N,N-di(pyridin-3-yl)isophthalamide [Compound 15b]",IC50,β-hematin (βH) formation,4.7 ± 0.7 µM
same,IC50,[2]; [12],1.32 ± 0.04 µM
"CCN(CC)CCCC(C)Nc1ccnc2cc(Cl)ccc12 (stereo not shown) [CQ, chloroquine, reference compound]",logK (association constant with Fe(III)PPIX),[4],5.52 ± 0.03 ^a
same,IC50,"[1]; Plasmodium falciparum, D10, read-out: D10 parasite IC50",0.021 ± 0.002 µM
same,IC50,"[2]; Plasmodium falciparum, NF54, read-out: NF54 parasite IC50",0.008 ± 0.002 µM
"5-Methyl-N,N-diphenylisophthalamide [Compound 15g]",IC50,β-hematin (βH) formation,> 1000 µM
same,IC50,[2]; [12],146 ± 1 µM
"5-Methoxy-N,N-di(pyridin-4-yl)isophthalamide [Compound 15m]",IC50,β-hematin (βH) formation,22 ± 1 µM
same,IC50,[2]; [12],3 ± 0.5 µM
"N,N-Di(pyridin-4-yl)pyridine-2,6-dicarboxamide [Compound 15o]",IC50,β-hematin (βH) formation,260 ± 7 µM
same,IC50,[2]; [12],> 315 µM
"5-Nitro-N,N-diphenylisophthalamide [Compound 15c]",IC50,β-hematin (βH) formation,7 ± 0.2 µM
same,IC50,[2]; [12],1.4 ± 0.2 µM
"5-(tert-Butyl)-N,N-diphenylisophthalamide [Compound 15j]",IC50,β-hematin (βH) formation,> 1000 µM
same,IC50,[2]; [12],8.1 ± 0.5 µM
"5-(tert-Butyl)-N,N-di(pyridin-4-yl)isophthalamide [Compound 15h]",IC50,β-hematin (βH) formation,13.3 ± 0.7 µM
same,IC50,[2]; [12],1.6 ± 0.2 µM
"5-(tert-Butyl)-N,N-di(pyridin-3-yl)isophthalamide [Compound 15i]",Degradation half-life,[5],0.873 h
same,Hepatic extraction (EH),[5],0.6
same,In vitro clearance,[5],130.3 μL/min/mg protein
same,Degradation half-life,[6],2.365 h
same,Hepatic extraction (EH),[6],0.4
same,In vitro clearance,[6],14.1 μL/min/mg protein
same,IC50,K1 CQ-resistant strain,1.7 ± 0.4 µM
same,IC50,[7],185 µM
same,IC50,β-hematin (βH) formation,6.8 ± 0.1 µM
same,Kinetic solubility FaSSIF,Kinetic solubility,153.6 µM
same,Kinetic solubility pH 2,Kinetic solubility,197.2 μM
same,Kinetic solubility pH 6.5,Kinetic solubility,92.7 μM
same,Degradation half-life,[8],1.55 h
same,Hepatic extraction (EH),[8],0.4
same,In vitro clearance,[8],33.5 μL/min/mg protein
same,IC50,[1]; [11],0.7 ± 0.1 µM
same,IC50,[2]; [12],0.6 ± 0.1 µM
"5-Methyl-N,N-di(pyridin-4-yl)isophthalamide [Compound 15f]",IC50,β-hematin (βH) formation,8 ± 1 µM
same,logK (association constant with Fe(III)PPIX),[3],3.92 ± 0.21
same,Binding constant ratio relative to 12c (K/K12c),[3],5.24
same,IC50,[2]; [12],2.5 ± 0.6 µM
"N,N-Di(pyridin-4-yl)isophthalamide [Compound 15k]",IC50,β-hematin (βH) formation,507 ± 33 µM
same,IC50,[2]; [12],9 ± 4 µM
"N,N-bis(4-((Dimethylamino)methyl)phenyl)-5-nitroisophthalamide [Compound 17]",IC50,β-hematin (βH) formation,7.9 ± 0.2 µM
same,IC50,[2]; [12],1.5 ± 0.2 µM
same,inoculum effect / cellular accumulation,[9],insignificant inoculum effect
"5-Cyano-N,N-diphenylisophthalamide [Compound 15e]",IC50,β-hematin (βH) formation,4.4 ± 0.2 µM
same,IC50,[1]; [11],5.2 µM
"5-Methoxy-N,N-diphenylisophthalamide [Compound 15n]",IC50,β-hematin (βH) formation,> 1000 µM
same,IC50,[2]; [12],37 ± 13 µM
"5-Nitro-N,N-di(pyridin-4-yl)isophthalamide [Compound 15a]",Degradation half-life,[5],>2.5 h
same,Hepatic extraction (EH),[5],<0.33
same,In vitro clearance,[5],<11.6 μL/min/mg protein
same,Degradation half-life,[6],>2.5 h
same,Hepatic extraction (EH),[6],<0.42
same,In vitro clearance,[6],<11.6 μL/min/mg protein
same,IC50,[7],> 275 µM
same,IC50,β-hematin (βH) formation,4.3 ± 0.1 µM
same,Kinetic solubility FaSSIF,Kinetic solubility,13 µM
same,Kinetic solubility pH 2,Kinetic solubility,199.7 μM
same,Kinetic solubility pH 6.5,Kinetic solubility,< 5 μM
same,Degradation half-life,[8],>2.5 h
same,Hepatic extraction (EH),[8],<0.30
same,In vitro clearance,[8],<11.6 μL/min/mg protein
same,IC50,[1]; [11],0.9 ± 0.1 µM
same,IC50,[2]; [12],0.7 ± 0.2 µM
same,inoculum effect / cellular accumulation,[9],larger accumulation ratios
same,IC50,[10],0.19 µM
"N,N-Diphenylpyridine-2,6-dicarboxamide [Compound 15p]",IC50,β-hematin (βH) formation,> 1000 µM
same,IC50,[2]; [12],> 315 µM
